# According to patent publication US12522594B2, “2-heteroaryl-3-oxo-2,3-dihydropyridazine-4-carboxamides for the treatment of cancer” (Deutsches Krebsforschungszentrum, priority 2017, dated 2026):
# What was measured:
# Type in all cases: cell-based
# AHR [1] = target: T1, AHR (Homo sapiens, UniProt P35869); assay: In vitro assay 1: antagonism in human cell line (transactivation assay, U87 cells prestimulated with kynurenic acid, DRE firefly luciferase reporter); design: host or cells: U87 glioblastoma cells, stably transfected with DRE firefly luciferase and renilla reporter constructs; conditions: 150 uM kynurenic acid, 20 hours, read-out: Assay 1: AHR-luc Hum Antagonism IC50
# T1 sequence (P35869 11-848): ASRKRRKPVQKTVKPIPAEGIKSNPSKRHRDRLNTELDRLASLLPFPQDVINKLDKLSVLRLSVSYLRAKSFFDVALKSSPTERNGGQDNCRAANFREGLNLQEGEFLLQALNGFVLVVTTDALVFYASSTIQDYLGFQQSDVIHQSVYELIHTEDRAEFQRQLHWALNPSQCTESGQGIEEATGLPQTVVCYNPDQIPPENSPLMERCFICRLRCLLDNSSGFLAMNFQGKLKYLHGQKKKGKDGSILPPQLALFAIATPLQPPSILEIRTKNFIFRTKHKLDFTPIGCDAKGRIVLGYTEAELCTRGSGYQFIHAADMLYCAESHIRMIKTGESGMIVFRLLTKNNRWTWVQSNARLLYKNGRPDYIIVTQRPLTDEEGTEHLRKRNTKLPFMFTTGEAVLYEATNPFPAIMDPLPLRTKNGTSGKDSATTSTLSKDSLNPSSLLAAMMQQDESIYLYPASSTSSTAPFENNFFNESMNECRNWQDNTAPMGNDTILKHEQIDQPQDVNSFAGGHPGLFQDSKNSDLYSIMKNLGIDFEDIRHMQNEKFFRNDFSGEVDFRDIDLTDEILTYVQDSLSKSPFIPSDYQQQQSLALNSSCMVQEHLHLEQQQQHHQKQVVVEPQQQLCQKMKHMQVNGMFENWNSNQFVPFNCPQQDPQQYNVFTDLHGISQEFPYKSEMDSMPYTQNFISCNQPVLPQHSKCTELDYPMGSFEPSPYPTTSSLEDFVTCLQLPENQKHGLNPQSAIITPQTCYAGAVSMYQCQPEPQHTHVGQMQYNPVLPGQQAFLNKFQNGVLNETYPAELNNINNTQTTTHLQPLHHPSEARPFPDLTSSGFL
# In short: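 Antagonism measured after kynurenic acid prestimulation in U87 cells that express AHR endogenously and stably harbor a firefly luciferase gene under DRE control plus a constitutive renilla construct. Positive and negative controls served for normalization.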
# AHR [2] = target: T1, AHR; assay: In vitro assay 3: AHR-regulated CYP1A1 expression in human cell line (U937, qPCR, KA stimulation); conditions: U937 cells, 200 uM KA, 6 hours, CYP1A1 expression by qPCR; read-out: Assay 3: Hum CYP1A1 Antagonism IC50
# In short: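 U937 human monocytic cells were stimulated with 200 uM KA for 6 h, with or without compound at eight concentrations from 1 nM to 3 uM, in duplicate. CYP1A1 mRNA was quantified by Taqman qPCR as fold expression normalised to HPRT. Unstimulated cells served as negative control.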
# AHR [3] = target: T1, AHR; assay: In vitro assay 2: agonism in human cell line (transactivation assay, U87 cells, DRE firefly luciferase reporter); design: host or cells: U87 glioblastoma cells, stably transfected with DRE firefly luciferase and renilla reporter constructs; conditions: no kynurenic acid, 20 hours, read-out: Assay 2: AHR-luc Hum Agonism IC50
# In short: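 Agonist readout: DRE firefly luciferase, with constitutive renilla reporter, in stably transfected U87 cells expressing AHR endogenously. Normalization used positive control (300 uM kynurenic acid) and negative control.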
Compound,IC50 (AHR [1]),IC50 (AHR [2]),IC50 (AHR [3])
"O=C(N[C@H]1COC[C@H]1O)c1cc(-c2ccc(Cl)cc2)nn(-c2cccnc2)c1=O (single isomer, unassigned) [Example 172, 6-(4-chlorophenyl)-N-[(cis)-4-hydroxytetrahydrofuran-3-yl]-3-oxo-2-(pyridin-3-yl)-2,3-dihydropyridazine-4-carboxamide]",29.5 nM,23.4 nM,> 20 µM
"Cn1cc(-n2nc(-c3ccc(Cl)cc3)cc(C(=O)NCC(C)(C)O)c2=O)cn1 [Example 32, 6-(4-Chlorophenyl)-N-(2-hydroxy-2-methylpropyl)-2-(1-methyl-1H-pyrazol-4-yl)-3-oxo-2,3-dihydropyridazine-4-carboxamide]",35.6 nM,21.9 nM,> 20 µM
"CC(C)(O)CNC(=O)c1cc(-c2ccc(Cl)cc2)nn(-c2cncc(F)c2)c1=O [Example 82, 6-(4-Chlorophenyl)-2-(5-fluoropyridin-3-yl)-N-(2-hydroxy-2-methylpropyl)-3-oxo-2,3-dihydropyridazine-4-carboxamide]",37.6 nM,34.5 nM,> 20 µM
"C[C@@H](CO)NC(=O)c1cc(-c2ccc(Cl)cc2)nn(-c2ccn(C)n2)c1=O [Example 192, 6-(4-Chlorophenyl)-N-[(2S)-1-hydroxypropan-2-yl]-2-(1-methyl-1H-pyrazol-3-yl)-3-oxo-2,3-dihydropyridazine-4-carboxamide]",341 nM,4.3 nM,> 20 µM
"CC(C)(O)CNC(=O)c1cc(-c2ccc(C(F)(F)F)nc2)nn(-c2cnsc2)c1=O [Example 240, N-(2-Hydroxy-2-methylpropyl)-3-oxo-2-(1,2-thiazol-4-yl)-6-[6-(trifluoromethyl)pyridin-3-yl]-2,3-dihydropyridazine-4-carboxamide]",10.6 nM,22.7 nM,> 20 µM
"O=C(NC(CO)C1CC1)c1cc(-c2ccc(Cl)cc2)nn(-c2cccnc2)c1=O (single isomer, unassigned; (-)) [Example 92, (−)-6-(4-Chlorophenyl)-N-(1-cyclopropyl-2-hydroxyethyl)-3-oxo-2-(pyridin-3-yl)-2,3-dihydropyridazine-4-carboxamide]",19 nM,2.76 nM,> 20 µM
"Cn1cc(-n2nc(-c3ccc(C(F)(F)F)cc3)cc(C(=O)N[C@H]3CCC[C@@H]3O)c2=O)cn1 [Example 210, N-[(1S,2S)-2-Hydroxycyclopentyl]-2-(1-methyl-1H-pyrazol-4-yl)-3-oxo-6-[4-(trifluoromethyl)phenyl]-2,3-dihydropyridazine-4-carboxamide]",1.46 nM,2.02 nM,> 20 µM
"Cn1cc(-n2nc(-c3ccc(C(F)(F)F)cc3)cc(C(=O)N[C@@H]3COC[C@@H]3O)c2=O)cn1 (single isomer, unassigned) [Example 231, (−)-N-cis-4-Hydroxytetra-hydrofuran-3-yl-2-(1-methyl-1H-pyrazol-4-yl)-3-oxo-6-[4-(trifluoromethyl)phenyl]-2,3-dihydropyridazine-4-carboxamide]",7.89 nM,9.93 nM,> 20 µM

# Next, values leading:
IC50 (AHR [1]),IC50 (AHR [2]),IC50 (AHR [3]),Compound
8.42 nM,9.6 nM,> 20 µM,"C[C@@H](NC(=O)c1cc(-c2ccc(C(F)(F)F)cc2)nn(-c2cccnc2)c1=O)C(C)(C)O [Example 234, N-[(2R)-3-Hydroxy-3-methylbutan-2-yl]-3-oxo-2-(pyridin-3-yl)-6-[4-(trifluoromethyl)phenyl]-2,3-dihydropyridazine-4-carboxamide]"
56.7 nM,31.1 nM,> 20 µM,"CC(C)(O)CNC(=O)c1cc(-c2ccc(C(F)F)cc2)nn(-c2cccnc2)c1=O [Example 322, 6-[4-(Difluoromethyl)phenyl]-N-(2-hydroxy-2-methylpropyl)-3-oxo-2-(pyridin-3-yl)-2,3-dihydropyridazine-4-carboxamide]"
283 nM,355 nM,> 20 µM,"O=C(NC[C@@H](O)CO)c1cc(-c2ccc(Cl)cc2)nn(-c2cccnc2)c1=O [Example 73, (+)-6-(4-Chlorophenyl)-N-[(2R)-2,3-dihydroxypropyl]-3-oxo-2-(pyridin-3-yl)-2,3-dihydropyridazine-4-carboxamide]"
18.8 nM,11.2 nM,> 20 µM,"O=C(NC(CO)C(F)(F)F)c1cc(-c2ccc(OC(F)(F)F)cc2)nn(-c2cccnc2)c1=O (stereo not drawn) [Example 149, 3-Oxo-2-(pyridin-3-yl)-N-(1,1,1-trifluoro-3-hydroxypropan-2-yl)-6-[4-(trifluoromethoxy)phenyl]-2,3-dihydropyridazine-4-carboxamide]"
24.2 nM,21.8 nM,> 20 µM,"C[C@@H](CO)NC(=O)c1cc(-c2ccc(Cl)cc2)nn(-c2cccnc2)c1=O [Example 68, 6-(4-Chlorophenyl)-N-[(2S)-1-hydroxypropan-2-yl]-3-oxo-2-(pyridin-3-yl)-2,3-dihydropyridazine-4-carboxamide]"
45.9 nM,43.3 nM,> 20 µM,"CC(C)(O)CNC(=O)c1cc(-c2ccc(OC(F)(F)F)cc2)nn(-c2cccnc2)c1=O [Example 292, N-(2-Hydroxy-2-methylpropyl)-3-oxo-2-(pyridin-3-yl)-6-[4-(trifluoromethoxy)phenyl]-2,3-dihydropyridazine-4-carboxamide]"
4.55 nM,0.15 nM,> 20 µM,"Cc1ccc(-c2cc(C(=O)NCC(O)C(F)(F)F)c(=O)n(-c3cnn(C)c3)n2)cc1 (single isomer, unassigned; enantiomer 1) [Example 11, (−)-6-(4-Methylphenyl)-2-(1-methyl-1H-pyrazol-4-yl)-3-oxo-N-(3,3,3-trifluoro-2-hydroxypropyl)-2,3-dihydropyridazine-4-carboxamide, Enantiomer 1]"
27.3 nM,37.3 nM,> 20 µM,"O=C(N[C@H]1COC[C@@H]1O)c1cc(-c2ccc(OC(F)(F)F)cc2)nn(-c2cccnc2)c1=O (single isomer, unassigned; enantiomer 2) [Example 162, N-[(trans)-4-Hydroxytetrahydrofuran-3-yl]-3-oxo-2-(pyridin-3-yl)-6-[4-(trifluoromethoxy)phenyl]-2,3-dihydropyridazine-4-carboxamide, Enantiomer 2]"
5.8 nM,10.9 nM,> 20 µM,"O=C(NC[C@H](O)C(F)(F)F)c1cc(-c2ccc(OC(F)F)cc2)nn(-c2cccnc2)c1=O [Example 314, 6-[4-(Difluoromethoxy)phenyl]-3-oxo-2-(pyridin-3-yl)-N-[(2S)-3,3,3-trifluoro-2-hydroxypropyl]-2,3-dihydropyridazine-4-carboxamide]"
